# Results as given in patent publication US20100286200A1, “COMBINATION OF METFORMIN AND AN MTP INHIBITOR” (JANSSEN PHARMACEUTICA NV, priority 2008, published 2010).
# Columns and labels:
# [1] = system: subjects with type 2 diabetes mellitus undergoing metformin treatment; assay: Proof-of-concept 12-week double-blind, randomized, placebo-controlled study of the MTP inhibitor in subjects on metformin treatment; type: in vivo, human
# Description: Proof-of-concept study of combinations of metformin and the MTP inhibitor (+)-phenyl-(4-{4-[(4′-trifluoromethyl-biphenyl-2-carbonyl)-amino]-phenyl}-piperidin-1-yl)-acetic acid methyl ester
# Safety and efficacy of the MTP inhibitor (+)-phenyl-(4-{4-[(4′-trifluoromethyl-biphenyl-2-carbonyl)-amino]-phenyl}-piperidin-1-yl)-acetic acid methyl ester in the treatment of subjects with type 2 diabetes mellitus undergoing metformin treatment has been investigated. Three dosing regimens of the MTP inhibitor, 5-10-15 mg bid, were compared to placebo in a double-blind, randomized, parallel-group study design of 12 weeks wherein all subjects were following metformin treatment. All subjects remained on a calorically appropriate, low fat (≦30%) diet, being in accordance with the local practice guidelines for the treatment of type 2 diabetes.
# Subjects randomized into the study had to have type 2 diabetes for at least 3 months and remained on a stable metformin monotherapy for at least 2 months. There were 88, 84, 91 and 89 patients randomized to placebo, 5 mg, 10 mg and 15 mg BID. Mean age was 55 years and there were slightly more males than females randomized into the study (males:females—54%:46%).
# The mean baseline glycosylated hemoglobin (HbA1c) was 7.8±0.8% (mean±SD) and the mean plasma glucose was 9.1±1.80 mmol/L (mean±SD). The majority (68%) of subjects had HbA1c levels≦8%.
# Mean weight at baseline was 94.9 kg and varied between 92.8 kg and 96.7 kg in different treatment groups, while the mean baseline BMI was 32.8 kg/m^2.
# [2] = cited from earlier work
# [3] = 5 mg bid, with metformin, week 12
# [4] = 10 mg bid and 15 mg bid, combination with metformin
# [5] = 10 mg bid, with metformin, Week 12
# [6] = 15 mg bid, with metformin, Week 12
compound,measurement,setting,value
"COC(=O)C(c1ccccc1)N1CCC(c2ccc(NC(=O)c3ccccc3-c3ccc(C(F)(F)F)cc3)cc2)CC1 (single isomer, unassigned; (+)) [(+)-phenyl-(4-{4-[(4′-trifluoromethyl-biphenyl-2-carbonyl)-amino]-phenyl}-piperidin-1-yl)-acetic acid methyl ester]",mean body weight loss at Week 12,"[1]; 5 mg bid, with metformin",1.71 kg
same,mean body weight loss at Week 12 (percent),"[1]; 5 mg bid, with metformin",1.0%
same,mean percentage change from baseline at week 12 in fasting plasma glucose (FPG),"[1]; 5 mg bid, with metformin",−2.3%
same,"mean decrease in HbA1c (%), change from baseline at Week 12","[1]; 5 mg bid, with metformin, Week 12, baseline HbA1c 7.8±0.8%",−0.46%
same,HbA1c least square mean (mixed model) difference from placebo,[1]; [3],0.19
same,absolute change from baseline in FPG (decrease),[1]; [3],0.37 mmol/L
same,LDL levels (fasting plasma lipids),[1]; [4],Beneficial effects
same,ratio of LDL over HDL (fasting plasma lipids),[1]; [4],Beneficial effects
same,mean body weight loss at Week 12,"[1]; 10 mg bid, with metformin",2.80 kg
same,mean body weight loss at Week 12 (percent),"[1]; 10 mg bid, with metformin",2.9%
same,mean percentage change from baseline at week 12 in fasting plasma glucose (FPG),"[1]; 10 mg bid, with metformin",−6.1%
same,HbA1c least square mean (mixed model) difference from placebo,[1]; [5],0.28
same,absolute change from baseline in FPG (decrease),[1]; [5],0.063 mmol/L
same,"mean decrease in HbA1c (%), change from baseline at Week 12",[1]; [5],−0.55%
same,mean body weight loss at Week 12,"[1]; 15 mg bid, with metformin",3.37 kg
same,mean body weight loss at Week 12 (percent),"[1]; 15 mg bid, with metformin",3.6%
same,mean percentage change from baseline at week 12 in fasting plasma glucose (FPG),"[1]; 15 mg bid, with metformin",−6.0%
same,HbA1c least square mean (mixed model) difference from placebo,[1]; [6],0.28
same,absolute change from baseline in FPG (decrease),[1]; [6],0.63 mmol/L
same,"mean decrease in HbA1c (%), change from baseline at Week 12",[1]; [6],−0.54%
same,change from baseline at Week 12 of HbA1c levels vs. placebo (mixed model analysis),"[1]; all active treatment arms (5, 10, 15 mg bid), with metformin",statistically significant decrease vs. placebo
same,metabolism in the plasma,[2],rapidly metabolised in the plasma
same,systemic plasma concentrations,[2],very low systemic plasma concentrations
